pEC50: −log10 of the molar value.
target: STING (Homo sapiens, UniProt Q86WV6, G230A/H232R/R293Q/R71H); experiment: STING reporter assay in THP1-Dual KO-IFNAR2 cells (2′3′cGAMP stimulation, luciferase reporter); assay type: cell-based; settings: 15 μM 2′3′cGAMP stimulation, 24 h, read-out: Pharmaron, THP1_IFNAR2 STING 24 h Luci Normalized: GeoMean EC50
Summary of the method: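 EC50 from secreted luciferase (QUANTI-Luc Plus luminescence of supernatant) after 24 h at 37 °C, 5% CO2. Cells: THP1-Dual KO-IFNAR2, treated with compound (0.0017-100 μM final) plus lipofected 2′3′cGAMP at 15 μM final.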

Chain of STING (Q86WV6 whole entry R71H/G230A/H232R/R293Q): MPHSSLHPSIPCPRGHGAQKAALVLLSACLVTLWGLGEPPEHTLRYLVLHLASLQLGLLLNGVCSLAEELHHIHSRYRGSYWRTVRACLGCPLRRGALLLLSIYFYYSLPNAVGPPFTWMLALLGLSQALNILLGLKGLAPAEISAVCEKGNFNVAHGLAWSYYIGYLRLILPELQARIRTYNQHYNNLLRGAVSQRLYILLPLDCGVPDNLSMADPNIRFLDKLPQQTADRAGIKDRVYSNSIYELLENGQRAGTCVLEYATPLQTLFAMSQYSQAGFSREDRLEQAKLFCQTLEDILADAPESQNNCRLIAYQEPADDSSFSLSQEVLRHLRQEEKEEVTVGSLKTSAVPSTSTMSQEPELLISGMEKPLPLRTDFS

Compound	pEC50
O=C(Nc1c[nH]c2ccc(OCC[C@@H]3C[C@@H]4CN(CC(F)(F)F)C[C@@H]4C3)cc12)C1CCOCC1 [Compound 152, N-(5-{2-[(3aR,5S,6aS)-2-(2,2,2-trifluoroethyl)-octahydrocyclopenta[c]pyrrol-5-yl]ethoxy}-1H-indol-3-yl)oxane-4-carboxamide]	6.00 to 6.70
CC1(C(=O)Nc2c[nH]c3ccc(O[C@H]4C[C@@H](c5ccc(C(F)(F)F)cc5)C4)cc23)CCNCC1 [Compound 529, 4-methyl-N-(5-(cis-3-(4-(trifluoromethyl)phenyl)cyclobutoxy)-1H-indol-3-yl)piperidine-4-carboxamide]	4.00 to 5.30
N#CC1(C(=O)Nc2c[nH]c3ccc(O[C@H]4C[C@H](c5ccc(C(F)(F)F)cc5)C4)cc23)CC1 [Compound 565, 1-cyano-N-(5-(trans-3-(4-(trifluoromethyl)phenyl)cyclobutoxy)-1H-indol-3-yl)cyclopropane-1-carboxamide]	6.00 to 6.70
CC1(C(=O)Nc2c[nH]c3ccc(OC4CC(c5ccc(C(F)(F)F)nc5)C4)cc23)CC1 (stereo not shown) [Compound 376, 1-methyl-N-(5-(3-(6-(trifluoromethyl)pyridin-3-yl)cyclobutoxy)-1H-indol-3-yl)cyclopropane-1-carboxamide]	6.00 to 6.70
O=C(Nc1c[nH]c2ccc(O[C@H]3C[C@H](c4ccc(C(F)(F)F)cc4)C3)cc12)C1CC1(F)Cl (stereo partly drawn) [Compound 571, 2-chloro-2-fluoro-N-(5-(trans-3-(4-(trifluoromethyl)phenyl)cyclobutoxy)-1H-indol-3-yl)cyclopropane-1-carboxamide]	6.00 to 6.70
C[C@H]1C[C@@H](C(=O)Nc2c[nH]c3ccc(OCCc4ccc(C(F)(F)F)cc4)cc23)C1 [Compound 162, cis-3-methyl-N-(5-(4-(trifluoromethyl)phenethoxy)-1H-indol-3-yl)cyclobutane-1-carboxamide]	6.70 to 7.40
CC1(C(=O)Nc2c[nH]c3ccc(O[C@H]4C[C@H](c5ccc(C(F)(F)F)cc5)C4)cc23)CC1 [Compound 261, 1-methyl-N-(5-(trans-3-(4-(trifluoromethyl)phenyl)cyclobutoxy)-1H-indol-3-yl)cyclopropane-1-carboxamide]	6.70 to 7.40
COCC(=O)Nc1c[nH]c2ccc(O[C@H]3C[C@@H](c4ccc(C(F)(F)F)cc4)C3)cc12 [Compound 260, 2-methoxy-N-(5-(cis-3-(4-(trifluoromethyl)phenyl)cyclobutoxy)-1H-indol-3-yl)acetamide]	6.00 to 6.70
O=C(Nc1c[nH]c2ccc(OCCc3ccc(C(F)(F)F)cc3)cc12)C1CC(O)C1 (stereo not shown) [Compound 180, 3-hydroxy-N-(5-(4-(trifluoromethyl)phenethoxy)-1H-indol-3-yl)cyclobutane-1-carboxamide]	6.00 to 6.70
CC(C)(C)C(=O)Nc1c[nH]c2ccc(OCCc3ccc(C(F)(F)F)cc3)cc12 [Compound 186, N-(5-(4-(trifluoromethyl)phenethoxy)-1H-indol-3-yl)pivalamide]	6.00 to 6.70
CC(=O)N[C@H]1C[C@@](C)(C(=O)Nc2c[nH]c3ccc(O[C@H]4C[C@@H](c5ccc(C(F)(F)F)cc5)C4)cc23)C1 [Compound 412, cis-3-acetamido-1-methyl-N-(5-(cis-3-(4-(trifluoromethyl)phenyl)cyclobutoxy)-1H-indol-3-yl)cyclobutane-1-carboxamide]	5.30 to 6.00
O=C(Nc1c[nH]c2ccc(OCCc3ccc(C(F)(F)F)nc3)cc12)C1CCC1 [Compound 142, N-(5-(2-(6-(trifluoromethyl)pyridin-3-yl)ethoxy)-1H-indol-3-yl)cyclobutanecarboxamide]	6.00 to 6.70
CC(=O)Nc1c[nH]c2ccc(OCC(C)(C)C3CCN(CC(F)(F)F)CC3)cc12 [Compound 108, N-(5-(2-methyl-2-(1-(2,2,2-trifluoroethyl)piperidin-4-yl)propoxy)-1H-indol-3-yl)acetamide]	4.00 to 5.30
O=C(Nc1c[nH]c2ccc(O[C@H]3C[C@@H](c4ccc(C(F)(F)F)nc4)C3)cc12)[C@H]1C[C@@H](CO)C1 [Compound 550, cis-3-(hydroxymethyl)-N-(5-(cis-3-(6-(trifluoromethyl)pyridin-3-yl)cyclobutoxy)-1H-indol-3-yl)cyclobutane-1-carboxamide]	6.00 to 6.70
O=C(Nc1c[nH]c2ccc(CC(O)Cc3ccc(C(F)(F)F)cc3)cc12)C1CC1 (single isomer, unassigned) [Compound 201, N-(5-(2-hydroxy-3-(4-(trifluoromethyl)phenyl)propyl)-1H-indol-3-yl)cyclopropanecarboxamide]	6.00 to 6.70
O=C(Nc1c[nH]c2ccc(O[C@H]3C[C@H](c4ccc(C(F)(F)F)nc4)C3)cc12)c1ccc(C(F)(F)F)cc1 [Compound 465, 4-(trifluoromethyl)-N-(5-(trans-3-(6-(trifluoromethyl)pyridin-3-yl)cyclobutoxy)-1H-indol-3-yl)benzamide]	6.00 to 6.70
CC1(C(=O)Nc2c[nH]c3ccc(C(O)CCc4ccc(C(F)(F)F)cc4)cc23)CC1 (stereo not shown) [Compound 172, N-(5-(1-hydroxy-3-(4-(trifluoromethyl)phenyl)propyl)-1H-indol-3-yl)-1-methylcyclopropane-1-carboxamide]	6.00 to 6.70

Next, values leading:

pEC50	Compound
6.00 to 6.70	CC1(C)CC1C(=O)Nc1c[nH]c2ccc(CCOc3ccc(C(F)(F)F)cc3)cc12 (stereo not shown) [Compound 397, 2,2-dimethyl-N-(5-(2-(4-(trifluoromethyl)phenoxy)ethyl)-1H-indol-3-yl)cyclopropane-1-carboxamide]
6.00 to 6.70	cis-3-hydroxy-N-(5-(2-((3aR,5r,6aS)-2-(2,2,2-trifluoroethyl)octahydrocyclopenta[c]pyrrol-5-yl)ethoxy)-1H-indol-3-yl)cyclobutane-1-carboxamide [Compound 344]
6.70 to 7.40	O=C(Nc1c[nH]c2ccc(OCCc3ccc(C(F)(F)F)cc3)cc12)[C@H]1C[C@H](CO)C1 [Compound 534, trans-3-(hydroxymethyl)-N-(5-(4-(trifluoromethyl)phenethoxy)-1H-indol-3-yl)cyclobutane-1-carboxamide]
6.00 to 6.70	CC1(C(=O)Nc2c[nH]c3ccc(OC[C@H]4C[C@@H]5CN(CC(F)(F)F)C[C@@H]5C4)cc23)COC1 [Compound 542, 3-methyl-N-(5-(((3aR,5s,6aS)-2-(2,2,2-trifluoroethyl)octahydrocyclopenta[c]pyrrol-5-yl)methoxy)-1H-indol-3-yl)oxetane-3-carboxamide]
6.70 to 7.40	O=C(Nc1c[nH]c2ccc(CCOc3ccc(C(F)(F)F)cc3)cc12)C1CC1(F)F (stereo not shown) [Compound 595, 2,2-difluoro-N-(5-(2-(4-(trifluoromethyl)phenoxy)ethyl)-1H-indol-3-yl)cyclopropane-1-carboxamide]
5.30 to 6.00	CC(=O)Nc1c[nH]c2ccc(CCOc3ccc(-c4csc(C)n4)cc3)cc12 [Compound 475, N-(5-{2-[4-(2-methyl-1,3-thiazol-4-yl)phenoxy]ethyl} -1H-indol-3-yl)acetamide]
6.00 to 6.70	CC(=O)Nc1c[nH]c2ccc(OCC3CCc4ccc(C(F)(F)F)cc4C3)cc12 (stereo not shown) [Compound 437, N-(5-((7-(trifluoromethyl)-1,2,3,4-tetrahydronaphthalen-2-yl)methoxy)-1H-indol-3-yl)acetamide]
5.30 to 6.00	CC(=O)Nc1c[nH]c2ccc(OC(C)c3ccc(C(F)(F)F)cc3)cc12 (stereo not shown) [Compound 497, N-(5-(1-(4-(trifluoromethyl)phenyl)ethoxy)-1H-indol-3-yl)acetamide]
6.00 to 6.70	O=C(Nc1c[nH]c2ccc(OCCc3ccc(C(F)(F)F)cc3)cc12)C1CC1(F)Cl (stereo not shown) [Compound 216, 2-chloro-2-fluoro-N-(5-(4-(trifluoromethyl)phenethoxy)-1H-indol-3-yl)cyclopropane-1-carboxamide]
6.00 to 6.70	CC(C)(C)CC(=O)Nc1c[nH]c2ccc(OCc3ccc(C(F)(F)F)cc3)cc12 [Compound 314, 3,3-dimethyl-N-(5-((4-(trifluoromethyl)benzyl)oxy)-1H-indol-3-yl)butanamide]
4.00 to 5.30	CC(=O)Nc1c[nH]c2ccc(OCCC3(O)CCC(F)(F)CC3)cc12 [Compound 278, N-(5-(2-(4,4-difluoro-1-hydroxycyclohexyl)ethoxy)-1H-indol-3-yl)acetamide]
5.30 to 6.00	C[C@@H]1OC[C@H]1C(=O)Nc1c[nH]c2ccc(OCC[C@@H]3C[C@@H]4CN(CC(F)(F)F)C[C@@H]4C3)cc12 [Compound 509, (2S,3R)-2-methyl-N-(5-(2-((3aR,5r,6aS)-2-(2,2,2-trifluoroethyl)octahydrocyclopenta[c]pyrrol-5-yl)ethoxy)-1H-indol-3-yl)oxetane-3-carboxamide]
6.00 to 6.70	CC(=O)Nc1c[nH]c2ccc(CCOc3ccc(Cl)c(Cl)c3)cc12 [Compound 214, N-(5-(2-(3,4-dichlorophenoxy)ethyl)-1H-indol-3-yl)acetamide]
6.00 to 6.70	CC[C@H](O)C(=O)Nc1c[nH]c2ccc(OCC[C@@H]3C[C@@H]4CN(CC(F)(F)F)C[C@@H]4C3)cc12 [Compound 521, (S)-2-hydroxy-N-(5-(2-((3aR,5r,6aS)-2-(2,2,2-trifluoroethyl)octahydrocyclopenta[c]pyrrol-5-yl)ethoxy)-1H-indol-3-yl)butanamide]
6.70 to 7.40	CC[C@@H](O)C(=O)Nc1c[nH]c2ccc(OCCc3ccc(C(F)(F)F)cc3)cc12 [Compound 431, (R)-2-hydroxy-N-(5-(4-(trifluoromethyl)phenethoxy)-1H-indol-3-yl)butanamide]
6.00 to 6.70	COCC1(C(=O)Nc2c[nH]c3ccc(OCc4ccc(C(F)(F)F)cc4)cc23)CC1 [Compound 319, 1-(methoxymethyl)-N-(5-((4-(trifluoromethyl)benzyl)oxy)-1H-indol-3-yl)cyclopropane-1-carboxamide]
6.00 to 6.70	3-chloro-N-(5-(2-((3aR,5r,6aS)-2-(2,2,2-trifluoroethyl)octahydrocyclopenta[c]pyrrol-5-yl)ethoxy)-1H-indol-3-yl)cyclobutane-1-carboxamide [Compound 342]
